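Five concentrations, 48 hours, 96-well plates. Here, GI50 denotes the concentration required for 50% inhibition of growth. TGI denotes the concentration required for complete inhibition of growth.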
What was measured:
Test in all cases: NCI anticancer screen, dose series, 48 h
[1] = system: A498 renal
[2] = system: CCRF-CEM leukemia
[3] = system: HCC-2998 colon
[4] = system: HCT-15 colon
[5] = system: HL-60(TB) leukemia
[6] = system: IGROV1 ovarian
[7] = system: OVCAR-3 ovarian
[8] = system: UO-31 renal
[9] = system: HS 578T breast
[10] = system: PC-3 prostate

Structure (SMILES) | TGI [1] [µM] | TGI [2] [µM] | TGI [3] [µM] | TGI [4] [µM] | TGI [5] [µM] | TGI [6] [µM] | TGI [7] [µM] | TGI [8] [µM] | GI50 [2] [µM] | GI50 [3] [µM] | GI50 [4] [µM] | GI50 [5] [µM] | GI50 [9] [µM] | TGI [9] [µM] | GI50 [6] [µM] | GI50 [7] [µM] | GI50 [10] [µM] | TGI [10] [µM] | GI50 [8] [µM] | GI50 [1] [µM]
O=C1c2ccccc2C(=O)N1C/C=C/CO | > 100 | > 100 | > 100 | > 100 | > 100 | > 100 | > 100 | > 100 |  |  |  |  |  |  |  |  |  |  |  | 
O=C(COC(=O)c1cccc2c(=O)c3ccccc3[nH]c12)Nc1ccccc1 | > 100 |  | > 100 |  | 36.1 | > 100 | > 100 | 65.4 |  |  |  |  |  |  |  |  |  |  |  | 
CCOC(=O)[C@@H](C)C[C@H](Cc1ccccc1)NC(=O)c1csc([C@@H](C[C@H](C(C)C)N(C)C(=O)[C@H](CC)NC(=O)[C@H]2CCCCN2C)OC(C)=O)n1 |  | > 16.7 | > 5.64 | > 16.7 | 0.0114 | > 16.7 | 0.00453 | > 16.7 | 0.00397 | 0.00267 | 0.00628 | < 0.00167 | 0.00405 | > 15.5 | 0.00193 | < 0.00167 | < 0.00167 | > 16.7 | 0.0128 | 
COc1ccc2c(c1OC)OCC(CN(C)C)C2=O (stereo unspecified) |  | 8.54 | 33.7 | 36.5 | 7.14 | 35.4 | 48.5 | 32.5 |  |  |  |  |  | > 87.4 |  |  |  | 34.6 |  | 
CSc1ncnc2c1ncn2C1OC(CO)C(O)OC1O (stereo unspecified) | > 53.1 | 0.402 |  | > 100 | 11.7 | 18.9 | 16.7 | 31.2 |  |  |  |  |  | > 100 |  |  |  | 33.9 |  | 
C=C1C(=O)O[C@@H]2C1C[C@@H](O)C(=C)CC/C=C(\C)CCC[C@H](C)[C@H]2OC(C)=O (stereo partly specified) | 29.4 | 5.05 | 29.2 | 14 |  | 19.5 | 12.6 | 18.4 | 2.34 | 15.4 | 3.04 |  | 10.3 | 27.7 | 5.17 | 3.38 | 6.1 | 22.9 | 5.18 | 15.3
O=C(NC1C2CC3CC(C2)CC1C3)c1cc(/C=C/c2ccccc2)[nH]c(=S)n1 (stereo unspecified) | > 100 | > 100 | > 100 |  | > 100 | > 100 | > 100 | > 100 |  |  |  |  |  |  |  |  |  |  |  | 
N#CCC(=O)N/N=C(\C(=O)Nc1ccc(Cl)c(Cl)c1)C1CN(c2ccccc2)N=C1N (stereo unspecified) | > 100 | > 100 | > 100 | > 100 | > 100 | > 100 | > 100 | > 100 |  |  |  |  |  |  |  |  |  |  |  | 
CSCCOC(=O)C(=[N+]=[N-])c1ccc([N+](=O)[O-])cc1 |  | > 100 | > 100 | > 100 | > 100 | > 100 | > 100 | > 100 |  |  |  |  |  |  |  |  |  |  |  | 
Clc1cc2n[se]nc2cc1Cl | > 100 | > 100 | > 100 | > 100 | > 100 | > 100 |  | > 100 |  |  |  |  |  |  |  |  |  |  |  | 
N#CC1=C(N)NC(=S)NC12Nc1ccccc1N2 | 43.5 | > 100 |  |  | > 100 | > 100 | > 100 | > 100 | 18.2 |  |  | 20.8 | 68.9 | > 100 | 26.9 | 22 | 28.5 | > 100 | 55.2 | 20
COc1cc2c(cc1OC)C(=O)Cc1ccc(OC)c(OC)c1CN(C)CC2 | 48.4 | > 100 | > 100 | > 100 |  | > 100 | > 100 | > 100 |  |  |  |  |  |  |  |  |  |  |  | 
c1ccc2c(c1)[nH]c1c2nc2ncccn21 | > 100 | > 100 | > 100 |  |  | > 100 |  | > 100 |  |  |  |  |  |  |  |  |  |  |  | 
COC(=O)c1ccc(Cl)cc1NC(=O)C1CCCCC1 |  |  | > 100 | > 100 |  |  | > 100 | > 100 |  |  |  |  |  |  |  |  |  |  |  | 
O=C1CC(O)(c2ccccc2)C(c2ccccc2)=C1c1ccccc1 (stereo unspecified) |  | > 100 | > 100 | > 100 | 56.3 | > 100 | 88.2 |  |  |  |  |  |  |  |  |  |  |  |  | 
CC1(C)CCC(C)(C)c2c1ccc(O)c2Cc1c(O)ccc2c1C(C)(C)CCC2(C)C | 3.43 | 5.75 |  | 3.98 | 5.46 | 3.68 | 4.32 | 4.04 |  |  |  |  |  | 8.85 |  |  |  | 3.79 |  | 
CC(C)(C)OC(=O)NC(CO)c1cccc(OCc2ccccc2)c1 (stereo unspecified) | > 100 | > 100 | > 100 | > 100 | 43.8 | > 100 | > 100 | > 100 |  |  |  |  |  |  |  |  |  |  |  | 

Structure (SMILES) | TGI [1] [µM] | TGI [2] [µM] | TGI [3] [µM] | TGI [4] [µM] | TGI [5] [µM] | TGI [6] [µM] | TGI [7] [µM] | TGI [8] [µM] | GI50 [2] [µM] | GI50 [3] [µM] | GI50 [4] [µM] | GI50 [5] [µM] | GI50 [9] [µM] | TGI [9] [µM] | GI50 [6] [µM] | GI50 [7] [µM] | GI50 [10] [µM] | TGI [10] [µM] | GI50 [8] [µM] | GI50 [1] [µM]
COc1ccc2oc(C(=O)O)c3c2c1CCC3 | > 100 | > 100 | > 100 | > 100 | > 100 | > 100 | > 100 |  |  |  |  |  |  |  |  |  |  |  |  | 
CC(=O)C1(N=Nc2ccc(S(N)(=O)=O)cc2)CCOC1=O (stereo unspecified) | > 100 | > 100 |  | > 100 | > 100 | > 100 | > 100 | > 100 |  |  |  |  |  | > 100 |  |  |  | > 100 |  | 
N#C/C(=C/Sc1ccccc1)C(=O)O |  | > 100 |  | > 100 | > 100 | 37.2 | 78.5 | 41.4 |  |  |  |  |  |  |  |  |  |  |  | 
COc1ccc(-c2cc(-c3ccc(O)cc3)nc3n[nH]c(N)c23)cc1 | 36.6 | 81.8 |  | 95 |  | 52.2 | 31.7 | 28.2 | 21.6 |  | 25.9 |  | 19.6 | 43.3 | 17 | 13.5 | 29.1 | > 100 | 10.4 | 16.8
COc1ccc(OC(C(=O)O)c2ccccc2)c2c1CCCC2=O (stereo unspecified) | > 100 | > 100 | > 100 | > 100 | > 100 | > 100 | > 100 | > 100 |  |  |  |  |  |  |  |  |  |  |  | 
OCC1OC(n2cnc3c(Cl)nc(Cl)cc32)C(O)C1O (stereo unspecified) |  | > 100 | > 100 | > 100 | > 100 | > 100 | > 100 | > 100 | > 100 | > 100 | > 100 | > 100 | 19.7 | > 100 | > 100 | > 100 | > 100 | > 100 | > 100 | 
Cc1nn(-c2nc3ccccc3s2)c2c1C(=O)c1ccccc1-2 | > 100 |  | > 100 | > 100 | > 100 | > 100 | > 100 | > 100 |  |  |  |  |  |  |  |  |  |  |  | 
Fc1cccc2c1cc1ccc3cccc4ccc2c1c34 | > 100 | > 100 | > 100 |  | > 100 | > 100 | > 100 | > 100 |  |  |  |  |  |  |  |  |  |  |  | 
NCCN1C(=O)C2C3c4ccccc4C(c4ccccc43)C2C1=O (stereo unspecified) | > 100 | > 100 | > 100 | > 100 | > 100 | > 100 | > 100 | > 100 |  |  |  |  |  |  |  |  |  |  |  | 
CNC(=O)c1cccc2c(Nc3ccc(NS(C)(=O)=O)cc3OC)c3cccc(C)c3nc12 | 1.15 | 0.197 | 2.34 | 2.34 | 0.0552 | 13.2 | 5.02 | 2.89 |  |  |  |  |  |  |  |  |  |  |  | 
CCOc1ccccc1NC(=O)CCc1n[nH]c(=S)o1 |  | > 100 |  |  | > 100 |  | > 100 | > 100 |  |  |  |  |  |  |  |  |  |  |  | 
CCOC(=O)/C(C#N)=C1/C(O)=C(C(=O)OC)C(C(=O)OC)=C1C(=O)OC |  | > 100 | > 100 | > 100 | > 100 | > 100 | > 100 | > 100 |  |  |  |  |  |  |  |  |  |  |  | 
C/C(=C(\c1ccc(OCCN2CCCCCC2)cc1)c1ccc(OC(=O)Cc2ccccc2)cc1)c1ccc(Cl)cc1 | 16.7 | 10.5 | 5.57 | 4.26 | 8.17 | 6.51 | 5.22 | 4.21 | 3.2 | 2.72 | 1.79 | 3.5 | 2.86 | 6.52 | 2.8 | 2.75 |  |  | 2.08 | 6.35
O=S(O)CCCSSc1ccccc1 | > 100 | 93.3 | > 100 | > 100 |  | 41.1 | > 100 | > 100 |  |  |  |  |  |  |  |  |  |  |  | 
COc1ccc(OC)c(-c2cc(=O)c3c(OC)c(OC)c(OC)c(OC)c3o2)c1 | > 100 | > 100 | 92.1 | 77.5 | > 100 | > 100 | 75.3 | > 100 |  |  |  |  |  | > 100 |  |  |  |  |  | 
CCC[CH2][Sn]1([CH2]CCC)[O]C(=O)c2ccc(C)cc2[O]1 | 1.06 | 0.874 | 2.38 |  | 1.01 | 2.44 | 2.43 | 2.08 | 0.222 | 1.14 |  | 0.273 |  |  | 1.17 | 1.18 |  |  | 0.845 | 0.367
Cc1cn2c(/C=N/N=C(N)N)c(-c3cccnc3)nc2s1 |  | 55 |  | 18.1 | 53.8 | 49.8 | 22.9 | 21.4 | 4.38 |  | 4.39 | 3.8 | 23.5 | 47.1 | 15.6 | 10.3 | 6.95 | 24.7 | 6.1 | 

— PubChem BioAssay (NCI)
